Tests used:
ISC-enriched organoids [1] = test: Primary screen, 384-well 2.5-D organoid differentiation (ENR+CD, 6 days): basal lysozyme secretion (LYZ.NS); format: cell-based, murine; conditions: for Dose.FC.LYZ.NS / Z.LYZ.NS / SSMD.LYZ.NS / Z.LYZ.NS (standard z score) / Dose.FC.LYZ.NS (log 2 fold change): primary screen; for Dose.FC.LYZ.NS: FC vs plate median; for SSMD.LYZ.NS: strictly standardized mean difference; for Dose.FC.LYZ.NS (log 2 fold change): vs plate median
Text: (§1) High-throughput screening.

ISC-enriched organoids [2] = test: Primary screen, 384-well 2.5-D organoid differentiation (ENR+CD, 6 days, Target Selective Inhibitor Library, vs whole-plate median): ATP (CellTiter-Glo 3D, CTG); conditions: for Dose.FC.CTG / Z.CTG / SSMD.CTG / Z.CTG (standard z score) / Dose.FC.CTG (log 2 fold change): primary screen; for Dose.FC.CTG: FC vs plate median; for SSMD.CTG: strictly standardized mean difference; for Dose.FC.CTG (log 2 fold change): vs plate median
ISC-enriched organoids [3] = test: Primary screen, 384-well 2.5-D organoid differentiation (ENR+CD, 6 days): carbachol-induced lysozyme secretion (LYZ.S); format: cell-based, murine; conditions: for Dose.FC.LYZ.S / Z.LYZ.S / SSMD.LYZ.S / Dose.FC.LYZ.S (log 2 fold change): primary screen; for Dose.FC.LYZ.S: FC vs plate median; for Z.LYZ.S: standard z score; for SSMD.LYZ.S: strictly standardized mean difference; for Dose.FC.LYZ.S (log 2 fold change): vs plate median
Text: as §1

[4] = dose 0.08 uM (1st of 4 lines per treatment; dose not printed in this part)
[5] = dose 0.40 uM (2nd of 4 lines per treatment; dose not printed in this part)
[6] = dose 2.00 uM (3rd of 4 lines per treatment; dose not printed in this part)
[7] = dose 10.00 uM (4th of 4 lines per treatment; dose not printed in this part)
[8] = dose 0.08 uM, standard z score of FC
[9] = dose 0.40 uM, standard z score of FC
[10] = dose 2.00 uM, standard z score of FC
[11] = dose 10.00 uM, standard z score of FC
[12] = Dose 10.00 uM, standard z score
[13] = 1st of the 4 dose lines of the treatment (dose not given)
[14] = 2nd of the 4 dose lines of the treatment (dose not given)
[15] = 3rd of the 4 dose lines of the treatment (dose not given)
[16] = 4th of the 4 dose lines of the treatment (dose not given)

SMILES: C[C@H](Oc1cc(-c2cnn(C3CCNCC3)c2)cnc1N)c1c(Cl)ccc(F)c1Cl [(S)-crizotinib]
- SSMD.LYZ.NS_Rep (strictly standardized mean difference) (ISC-enriched organoids [1]; [4]): 0.838
- SSMD.LYZ.NS_Rep (strictly standardized mean difference) (ISC-enriched organoids [1]; [5]): 0.094
- SSMD.LYZ.NS_Rep (strictly standardized mean difference) (ISC-enriched organoids [1]; [6]): −0.229
- SSMD.LYZ.NS_Rep (strictly standardized mean difference) (ISC-enriched organoids [1]; [7]): −0.438
- Dose.FC.LYZ.NS (ISC-enriched organoids [1]; dose 0.08 uM, ENR+CD 6 days): 0.193 log 2 fold change
- Z.LYZ.NS (ISC-enriched organoids [1]; [8]): 1.679
- Dose.FC.LYZ.NS (ISC-enriched organoids [1]; dose 0.40 uM, ENR+CD 6 days): 0.009 log 2 fold change
- Z.LYZ.NS (ISC-enriched organoids [1]; [9]): 0.081
- Dose.FC.LYZ.NS (ISC-enriched organoids [1]; dose 2.00 uM, ENR+CD 6 days): −0.034 log 2 fold change
- Z.LYZ.NS (ISC-enriched organoids [1]; [10]): −0.294
- Dose.FC.LYZ.NS (ISC-enriched organoids [1]; dose 10.00 uM, ENR+CD 6 days): −0.068 log 2 fold change
- Z.LYZ.NS (ISC-enriched organoids [1]; [11]): −0.588
- SSMD.CTG_Rep (strictly standardized mean difference) (ISC-enriched organoids [2]; [4]): 0.742
- SSMD.CTG_Rep (strictly standardized mean difference) (ISC-enriched organoids [2]; [5]): 0.190
- SSMD.CTG_Rep (strictly standardized mean difference) (ISC-enriched organoids [2]; [6]): 0.285
- SSMD.CTG_Rep (strictly standardized mean difference) (ISC-enriched organoids [2]; [7]): 0.034
- Dose.FC.CTG (ISC-enriched organoids [2]; dose 0.08 uM, ENR+CD 6 days): 0.241 log 2 fold change
- Z.CTG (ISC-enriched organoids [2]; [8]): 0.575
- Dose.FC.CTG (ISC-enriched organoids [2]; dose 0.40 uM, ENR+CD 6 days): 0.054 log 2 fold change
- Z.CTG (ISC-enriched organoids [2]; [9]): 0.130
- Dose.FC.CTG (ISC-enriched organoids [2]; dose 2.00 uM, ENR+CD 6 days): 0.111 log 2 fold change
- Z.CTG (ISC-enriched organoids [2]; [10]): 0.266
- Dose.FC.CTG (ISC-enriched organoids [2]; dose 10.00 uM, ENR+CD 6 days): 0.019 log 2 fold change
- Z.CTG (ISC-enriched organoids [2]; [11]): 0.046
- SSMD.LYZ.S_Rep (strictly standardized mean difference) (ISC-enriched organoids [3]; [4]): 0.881
- Z.LYZ.S (standard z score) (ISC-enriched organoids [3]; [4]): 0.808
- SSMD.LYZ.S_Rep (strictly standardized mean difference) (ISC-enriched organoids [3]; [5]): 0.084
- Z.LYZ.S (standard z score) (ISC-enriched organoids [3]; [5]): 0.103
- SSMD.LYZ.S_Rep (strictly standardized mean difference) (ISC-enriched organoids [3]; [6]): −0.343
- Z.LYZ.S (standard z score) (ISC-enriched organoids [3]; [6]): −0.383
- SSMD.LYZ.S_Rep (strictly standardized mean difference) (ISC-enriched organoids [3]; [7]): −0.491
- Z.LYZ.S (standard z score) (ISC-enriched organoids [3]; [7]): −0.720
- Dose.FC.LYZ.S (ISC-enriched organoids [3]; dose 0.08 uM, ENR+CD 6 days): 0.125 log 2 fold change
- Dose.FC.LYZ.S (ISC-enriched organoids [3]; dose 0.40 uM, ENR+CD 6 days): 0.016 log 2 fold change
- Dose.FC.LYZ.S (ISC-enriched organoids [3]; dose 2.00 uM, ENR+CD 6 days): −0.059 log 2 fold change
- Dose.FC.LYZ.S (ISC-enriched organoids [3]; dose 10.00 uM, ENR+CD 6 days): −0.111 log 2 fold change

SMILES: CCc1cc(Nc2nccc(-c3c(-c4ccc(OC)c(C(=O)Nc5c(F)cccc5F)c4)nc4ccccn34)n2)c(OC)cc1N1CCC(N2CCN(S(C)(=O)=O)CC2)CC1 [GSK1904529A]
- Dose.FC.LYZ.NS (ISC-enriched organoids [1]; Dose 0.08 uM): 0.102 log 2 fold change
- Z.LYZ.NS (ISC-enriched organoids [1]; Dose 0.08 uM, standard z score): 0.890
- Dose.FC.LYZ.NS (ISC-enriched organoids [1]; Dose 0.40 uM): 0.112 log 2 fold change
- Z.LYZ.NS (ISC-enriched organoids [1]; Dose 0.40 uM, standard z score): 0.977
- Dose.FC.LYZ.NS (ISC-enriched organoids [1]; Dose 2.00 uM): −0.179 log 2 fold change
- Z.LYZ.NS (ISC-enriched organoids [1]; Dose 2.00 uM, standard z score): −1.557
- Dose.FC.LYZ.NS (ISC-enriched organoids [1]; Dose 10.00 uM): −0.163 log 2 fold change
- Z.LYZ.NS (ISC-enriched organoids [1]; [12]): −1.419
- Dose.FC.CTG (ISC-enriched organoids [2]; Dose 0.08 uM): 0.202 log 2 fold change
- Z.CTG (ISC-enriched organoids [2]; Dose 0.08 uM, standard z score): 0.484
- Dose.FC.CTG (ISC-enriched organoids [2]; Dose 0.40 uM): −0.071 log 2 fold change
- Z.CTG (ISC-enriched organoids [2]; Dose 0.40 uM, standard z score): −0.170
- Dose.FC.CTG (ISC-enriched organoids [2]; Dose 2.00 uM): −0.570 log 2 fold change
- Z.CTG (ISC-enriched organoids [2]; Dose 2.00 uM, standard z score): −1.361
- Dose.FC.CTG (ISC-enriched organoids [2]; Dose 10.00 uM): −0.691 log 2 fold change
- Z.CTG (ISC-enriched organoids [2]; [12]): −1.649
- Dose.FC.LYZ.S (ISC-enriched organoids [3]; Dose 0.08 uM): 0.133 log 2 fold change
- Dose.FC.LYZ.S (ISC-enriched organoids [3]; Dose 0.40 uM): −0.047 log 2 fold change
- Dose.FC.LYZ.S (ISC-enriched organoids [3]; Dose 2.00 uM): −0.225 log 2 fold change
- Dose.FC.LYZ.S (ISC-enriched organoids [3]; Dose 10.00 uM): −0.276 log 2 fold change

SMILES: CC(C)CCNC(=O)[C@H](CC(C)C)NC(=O)[C@H]1O[C@@H]1C(=O)O [Loxistatin Acid (E-64C)]
- Dose.FC.LYZ.NS (ISC-enriched organoids [1]; Dose 0.08 uM): 0.147 log 2 fold change
- Z.LYZ.NS (ISC-enriched organoids [1]; Dose 0.08 uM, standard z score): 1.283
- Dose.FC.LYZ.NS (ISC-enriched organoids [1]; Dose 0.40 uM): 0.061 log 2 fold change
- Z.LYZ.NS (ISC-enriched organoids [1]; Dose 0.40 uM, standard z score): 0.534
- Dose.FC.LYZ.NS (ISC-enriched organoids [1]; Dose 2.00 uM): 0.055 log 2 fold change
- Z.LYZ.NS (ISC-enriched organoids [1]; Dose 2.00 uM, standard z score): 0.482
- Dose.FC.LYZ.NS (ISC-enriched organoids [1]; Dose 10.00 uM): 0.004 log 2 fold change
- Z.LYZ.NS (ISC-enriched organoids [1]; [12]): 0.031
- SSMD.LYZ.NS (ISC-enriched organoids [1]; [13]): 0.757
- SSMD.LYZ.NS (ISC-enriched organoids [1]; [14]): 0.330
- SSMD.LYZ.NS (ISC-enriched organoids [1]; [15]): 0.411
- SSMD.LYZ.NS (ISC-enriched organoids [1]; [16]): 0.027
- Dose.FC.CTG (ISC-enriched organoids [2]; Dose 0.08 uM): 0.086 log 2 fold change
- Z.CTG (ISC-enriched organoids [2]; Dose 0.08 uM, standard z score): 0.206
- Dose.FC.CTG (ISC-enriched organoids [2]; Dose 0.40 uM): 0.156 log 2 fold change
- Z.CTG (ISC-enriched organoids [2]; Dose 0.40 uM, standard z score): 0.373
- Dose.FC.CTG (ISC-enriched organoids [2]; Dose 2.00 uM): 0.080 log 2 fold change
- Z.CTG (ISC-enriched organoids [2]; Dose 2.00 uM, standard z score): 0.191
- Dose.FC.CTG (ISC-enriched organoids [2]; Dose 10.00 uM): 0.094 log 2 fold change
- Z.CTG (ISC-enriched organoids [2]; [12]): 0.224
- SSMD.CTG (ISC-enriched organoids [2]; [13]): 0.218
- SSMD.CTG (ISC-enriched organoids [2]; [14]): 0.402
- SSMD.CTG (ISC-enriched organoids [2]; [15]): 0.176
- SSMD.CTG (ISC-enriched organoids [2]; [16]): 0.270
- Dose.FC.LYZ.S (ISC-enriched organoids [3]; Dose 0.08 uM): 0.125 log 2 fold change
- Dose.FC.LYZ.S (ISC-enriched organoids [3]; Dose 0.40 uM): 0.105 log 2 fold change
- Dose.FC.LYZ.S (ISC-enriched organoids [3]; Dose 2.00 uM): 0.037 log 2 fold change
- Dose.FC.LYZ.S (ISC-enriched organoids [3]; Dose 10.00 uM): 0.021 log 2 fold change
- Z.LYZ.S (ISC-enriched organoids [3]; [13]): 0.808
- Z.LYZ.S (ISC-enriched organoids [3]; [14]): 0.677
- Z.LYZ.S (ISC-enriched organoids [3]; [15]): 0.238
- Z.LYZ.S (ISC-enriched organoids [3]; [16]): 0.138
- SSMD.LYZ.S (ISC-enriched organoids [3]; [13]): 0.833
- SSMD.LYZ.S (ISC-enriched organoids [3]; [14]): 0.449
- SSMD.LYZ.S (ISC-enriched organoids [3]; [15]): 0.159
- SSMD.LYZ.S (ISC-enriched organoids [3]; [16]): 0.141

SMILES: Nc1ccc(C(=O)[O-])c(O)c1.[Na+] [Sodium 4-Aminosalicylate]
- Z.LYZ.NS (standard z score) (ISC-enriched organoids [1]; Dose 0.08 uM): 0.695
- Dose.FC.LYZ.NS (log 2 fold change) (ISC-enriched organoids [1]; Dose 0.08 uM): 0.080
- Z.LYZ.NS (standard z score) (ISC-enriched organoids [1]; Dose 0.40 uM): 0.354
- Dose.FC.LYZ.NS (log 2 fold change) (ISC-enriched organoids [1]; Dose 0.40 uM): 0.041
- Z.LYZ.NS (standard z score) (ISC-enriched organoids [1]; Dose 2.00 uM): 1.354
- Dose.FC.LYZ.NS (log 2 fold change) (ISC-enriched organoids [1]; Dose 2.00 uM): 0.156
- Z.LYZ.NS (standard z score) (ISC-enriched organoids [1]; Dose 10.00 uM): 0.796
- Dose.FC.LYZ.NS (log 2 fold change) (ISC-enriched organoids [1]; Dose 10.00 uM): 0.091
- Z.CTG (standard z score) (ISC-enriched organoids [2]; Dose 0.08 uM): 0.283
- Dose.FC.CTG (log 2 fold change) (ISC-enriched organoids [2]; Dose 0.08 uM): 0.119
- Z.CTG (standard z score) (ISC-enriched organoids [2]; Dose 0.40 uM): 0.488
- Dose.FC.CTG (log 2 fold change) (ISC-enriched organoids [2]; Dose 0.40 uM): 0.204
- Z.CTG (standard z score) (ISC-enriched organoids [2]; Dose 2.00 uM): 0.092
- Dose.FC.CTG (log 2 fold change) (ISC-enriched organoids [2]; Dose 2.00 uM): 0.038
- Z.CTG (standard z score) (ISC-enriched organoids [2]; Dose 10.00 uM): 0.590
- Dose.FC.CTG (log 2 fold change) (ISC-enriched organoids [2]; Dose 10.00 uM): 0.247
- Dose.FC.LYZ.S (log 2 fold change) (ISC-enriched organoids [3]; Dose 0.08 uM): 0.162
- Dose.FC.LYZ.S (log 2 fold change) (ISC-enriched organoids [3]; Dose 0.40 uM): 0.050
- Dose.FC.LYZ.S (log 2 fold change) (ISC-enriched organoids [3]; Dose 2.00 uM): 0.099
- Dose.FC.LYZ.S (log 2 fold change) (ISC-enriched organoids [3]; Dose 10.00 uM): 0.143

Reference: patent publication US20230398130A1, “METHODS AND COMPOSITIONS FOR DIFFERENTIATING STEM CELLS” (Massachusetts Institute of Technology, priority 2020, published 2023)
